Test results as given in patent publication US8137718B2, “Probiotic infant products” (Mead Johnson Nutrition Company, priority 2008, dated 2012).

test system: B. longum AH1205; assay: Minimum inhibitory concentration (MIC) of antibiotics for the B. longum strain; assay type: cell-based, Bifidobacterium longum; settings: against the B. longum strain AH1205
Protocol: Antibiotic sensitivity profiles of the B. longum strain were determined using the “disc susceptibility” assay. Cultures were grown in the appropriate broth medium for 24-48 hours, spread-plated (100 μl) onto agar media, and discs containing known concentrations of the antibiotics were placed onto the agar. Strains were examined for antibiotic sensitivity after 1-2 days incubation at 37° C. under anaerobic conditions. Strains were considered sensitive if zones of inhibition of 1 mm or greater were seen. The minimum inhibitory concentration (MIC) for each antibiotic was independently assessed.

minimum inhibitory concentration (MIC) | Compound
0.032 | CCC[C@@H]1C[C@@H](C(=O)N[C@@H]([C@H]2O[C@H](SC)[C@H](O)[C@@H](O)[C@H]2O)[C@H](C)Cl)N(C)C1 [clindamycin]
> 256 | Cc1ncc([N+](=O)[O-])n1CCO [metronidazole]

Compound | minimum inhibitory concentration (MIC)
CN[C@H](CC(C)C)C(=O)N[C@H]1C(=O)N[C@@H](CC(N)=O)C(=O)N[C@H]2C(=O)N[C@H]3C(=O)N[C@H](C(=O)N[C@H](C(=O)O)c4cc(O)cc(O)c4-c4cc3ccc4O)[C@H](O)c3ccc(c(Cl)c3)Oc3cc2cc(c3O[C@@H]2O[C@H](CO)[C@@H](O)[C@H](O)[C@H]2O[C@H]2C[C@](C)(N)[C@H](O)[C@H](C)O2)Oc2ccc(cc2Cl)[C@H]1O [vancomycin] | 0.75
